Assay results taken from patent US20240294508A1, “RIP1 MODULATORS INCLUDING AZETIDINE CYCLIC UREAS, PREPARATIONS, AND USES THEREOF” (SIRONAX LTD., priority 2021, published 2024).

System: HT-29 cells
Assay: HT29 cells 0FBS assay in vitro: TNF-α/SMAC mimetic/zVAD-FMK induced necroptosis, CellTiter-Glo cell viability (RIP1 inhibitory activity)
Assay type: cell-based
Conditions: Homo sapiens, FBS free medium, TNF-α (10 ng/ml) + SMAC mimetic (6 uM) + zVAD-FMK (10 μM), 20 hours, geometric mean EC50
Procedure, shortened: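 HT-29 cells (5,000/well, overnight) switched to FBS-free McCOY's 5A with TNF-α (10 ng/ml), SMAC mimetic (6 uM) and zVAD-FMK (10 μM) to drive necroptosis, plus compound, for 20 hours at 37° C. Viability read by CellTiter-Glo luminescence; geometric mean EC50 from 10-point duplicate dose-response.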

First: Cc1nc([C@H]2CC=NN2C(=O)N2CC(Oc3cc(-c4c(C)cnn4C)ncc3F)C2)cs1 [Compound 121, (R)-(3-((2-(1,4-dimethyl-1H-pyrazol-5-yl)-5-fluoropyridin-4-yl)oxy)azetidin-1-yl)(5-(2-methylthiazol-4-yl)-4,5-dihydro-1H-pyrazol-1-yl)methanone]
Second: Cc1cnn(C)c1-c1cc(OC2CN(C(=O)N3N=CCC3c3nccs3)C2)c(F)cn1 (stereo not shown) [Compound 92, (3-((2-(1,4-dimethyl-1H-pyrazol-5-yl)-5-fluoropyridin-4-yl)oxy)azetidin-1-yl)(5-(thiazol-2-yl)-4,5-dihydro-1H-pyrazol-1-yl)methanone]
The EC50 of the first is higher: 1 to 10 µM for the first, 0.0001 to 0.1 µM for the second.

`Cc1nn(-c2cc(OC3CN(C(=O)N4N=CC[C@H]4c4cc(F)cc(C#N)c4)C3)c(F)cn2)c(C)c1C(=O)NC1CC1` [Compound 86, (S)-1-(4-((1-(5-(3-cyano-5-fluorophenyl)-4,5-dihydro-1H-pyrazole-1-carbonyl)azetidin-3-yl)oxy)-5-fluoropyridin-2-yl)-N-cyclopropyl-3,5-dimethyl-1H-pyrazole-4-carboxamide] and `Cc1nn(-c2cc(OC3CN(C(=O)N4N=CC[C@H]4c4cc(F)cc(C#N)c4)C3)c(F)cn2)c(C)c1C(=O)O` [Compound 83, (S)-1-(4-((1-(5-(3-cyano-5-fluorophenyl)-4,5-dihydro-1H-pyrazole-1-carbonyl)azetidin-3-yl)oxy)-5-fluoropyridin-2-yl)-3,5-dimethyl-1H-pyrazole-4-carboxylic acid] fall in the same range of EC50: 0.0001 to 0.1 µM for the first, 0.0001 to 0.1 µM for the second.

`Cc1nn(-c2cc(OC3CN(C(=O)N4N=CC[C@H]4c4cccc(F)c4)C3)c(F)cn2)c(C)c1C(=O)NC1COC1` [Compound 77, (S)-1-(5-fluoro-4-((1-(5-(3-fluorophenyl)-4,5-dihydro-1H-pyrazole-1-carbonyl)azetidin-3-yl)oxy)pyridin-2-yl)-3,5-dimethyl-N-(oxetan-3-yl)-1H-pyrazole-4-carboxamide] and `CNC(=O)c1c(C)nn(-c2cc(OC3CN(C(=O)N4N=CC[C@H]4c4cccc(F)c4)C3)c(F)cn2)c1C` [Compound 79, (S)-1-(5-fluoro-4-((1-(5-(3-fluorophenyl)-4,5-dihydro-1H-pyrazole-1-carbonyl)azetidin-3-yl)oxy)pyridin-2-yl)-N,3,5-trimethyl-1H-pyrazole-4-carboxamide] fall in the same range of EC50: 0.0001 to 0.1 µM for the first, 0.0001 to 0.1 µM for the second.

`Cc1nn(CC(N)=O)c(C)c1-c1cc(OC2CN(C(=O)N3N=CC[C@H]3c3cc(F)cc(C#N)c3)C2)c(F)cn1` [Compound 21, (S)-2-(4-(4-((1-(5-(3-cyano-5-fluorophenyl)-4,5-dihydro-1H-pyrazole-1-carbonyl)azetidin-3-yl)oxy)-5-fluoropyridin-2-yl)-3,5-dimethyl-1H-pyrazol-1-yl)acetamide] and `Cc1n[nH]c(C)c1-c1cc(OC2CN(C(=O)N3N=CC[C@H]3c3cc(F)cc(C#N)c3)C2)c(F)cn1` [Compound 19, (S)-3-(1-(3-((2-(3,5-dimethyl-1H-pyrazol-4-yl)-5-fluoropyridin-4-yl)oxy)azetidine-1-carbonyl)-4,5-dihydro-1H-pyrazol-5-yl)-5-fluorobenzonitrile] fall in the same range of EC50: 0.0001 to 0.1 µM for the first, 0.0001 to 0.1 µM for the second.

`Cc1cnn(C)c1-c1cc(OC2CN(C(=O)N3N=CCC3c3ncccc3Cl)C2)c(F)cn1` (stereo not shown) [Compound 93, (5-(3-chloropyridin-2-yl)-4,5-dihydro-1H-pyrazol-1-yl)(3-((2-(1,4-dimethyl-1H-pyrazol-5-yl)-5-fluoropyridin-4-yl)oxy)azetidin-1-yl)methanone] and `Cc1cc(-c2cc(OC3CN(C(=O)N4N=CC[C@H]4c4cncc(F)c4)C3)c(F)cn2)n(C)n1` [Compound 29, (S)-(3-((2-(1,3-dimethyl-1H-pyrazol-5-yl)-5-fluoropyridin-4-yl)oxy)azetidin-1-yl)(5-(5-fluoropyridin-3-yl)-4,5-dihydro-1H-pyrazol-1-yl)methanone] fall in the same range of EC50: 0.0001 to 0.1 µM for the first, 0.0001 to 0.1 µM for the second.

`Cn1ncc(C#N)c1-c1ccc(F)c(OC2CN(C(=O)N3N=CC[C@H]3c3cncc(C#N)c3)C2)n1` [Compound 41, (S)-5-(1-(3-((6-(4-cyano-1-methyl-1H-pyrazol-5-yl)-3-fluoropyridin-2-yl)oxy)azetidine-1-carbonyl)-4,5-dihydro-1H-pyrazol-5-yl)nicotinonitrile] and `Cc1cnn(C)c1-c1ccc(F)c(OC2CN(C(=O)N3N=CC[C@H]3c3cncc(C#N)c3)C2)n1` [Compound 55, (S)-5-(1-(3-((6-(1,4-dimethyl-1H-pyrazol-5-yl)-3-fluoropyridin-2-yl)oxy)azetidine-1-carbonyl)-4,5-dihydro-1H-pyrazol-5-yl)nicotinonitrile] fall in the same range of EC50: 0.0001 to 0.1 µM for the first, 0.0001 to 0.1 µM for the second.

`Cc1nn(-c2cc(OC3CN(C(=O)N4N=CC[C@H]4c4cccc(F)c4)C3)c(F)cn2)c(C)c1C(=O)NCCO` [Compound 75, (S)-1-(5-fluoro-4-((1-(5-(3-fluorophenyl)-4,5-dihydro-1H-pyrazole-1-carbonyl)azetidin-3-yl)oxy)pyridin-2-yl)-N-(2-hydroxyethyl)-3,5-dimethyl-1H-pyrazole-4-carboxamide] and `Cc1nn(-c2cc(OC3CN(C(=O)N4N=CC[C@H]4c4cc(F)cc(F)c4)C3)c(Cl)cn2)c(C)c1C(N)=O` [Compound 160, (S)-1-(5-chloro-4-((1-(5-(3,5-difluorophenyl)-4,5-dihydro-1H-pyrazole-1-carbonyl)azetidin-3-yl)oxy)pyridin-2-yl)-3,5-dimethyl-1H-pyrazole-4-carboxamide] fall in the same range of EC50: 0.0001 to 0.1 µM for the first, 0.0001 to 0.1 µM for the second.

`Cc1cnn(C)c1-c1nc(OC2CN(C(=O)N3N=CC[C@H]3c3cncc(F)c3)C2)sc1C#N` [Compound 152, (S)-4-(1,4-dimethyl-1H-pyrazol-5-yl)-2-((1-(5-(5-fluoropyridin-3-yl)-4,5-dihydro-1H-pyrazole-1-carbonyl)azetidin-3-yl)oxy)thiazole-5-carbonitrile] and `Cn1nccc1-c1cnc(OC2CN(C(=O)N3N=CC[C@H]3c3cc(F)cc(F)c3)C2)s1` [Compound 153, (S)-(5-(3,5-difluorophenyl)-4,5-dihydro-1H-pyrazol-1-yl)(3-((5-(1-methyl-1H-pyrazol-5-yl)thiazol-2-yl)oxy)azetidin-1-yl)methanone] fall in the same range of EC50: 0.0001 to 0.1 µM for the first, 0.0001 to 0.1 µM for the second.

`Cc1nn(-c2cc(OC3CN(C(=O)N4N=CC[C@H]4c4cc(F)cc(F)c4F)C3)c(F)cn2)c(C)c1C(N)=O` [Compound 102, (S)-1-(5-fluoro-4-((1-(5-(2,3,5-trifluorophenyl)-4,5-dihydro-1H-pyrazole-1-carbonyl)azetidin-3-yl)oxy)pyridin-2-yl)-3,5-dimethyl-1H-pyrazole-4-carboxamide] and `Cc1c(N)nn(C)c1-c1cc(OC2CN(C(=O)N3N=CC[C@H]3c3cc(F)cc(C#N)c3)C2)c(F)cn1` [Compound 49, (S)-3-(1-(3-((2-(3-amino-1,4-dimethyl-1H-pyrazol-5-yl)-5-fluoropyridin-4-yl)oxy)azetidine-1-carbonyl)-4,5-dihydro-1H-pyrazol-5-yl)-5-fluoro benzonitrile] fall in the same range of EC50: 0.0001 to 0.1 µM for the first, 0.0001 to 0.1 µM for the second.

With `Cc1ncsc1-c1cc(OC2CN(C(=O)N3N=CC[C@H]3c3cc(F)cc(C#N)c3)C2)c(F)cn1` [Compound 18, (S)-3-fluoro-5-(1-(3-((5-fluoro-2-(4-methylthiazol-5-yl)pyridin-4-yl)oxy)azetidine-1-carbonyl)-4,5-dihydro-1H-pyrazol-5-yl)benzonitrile] the EC50 was 0.0001 to 0.1 µM.
